# Test results from PubChem BioAssay AID1159560 (GlaxoSmithKline (GSK), 2015).
# Calls of active or inactive are those of the source. No rule for the calls is given here.
# Tested on: Leishmania donovani growth inhibition
# Assay: Leishmania donovani growth inhibition (AID 1159560);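 also: parasites exposed to compound for 72 h before the viability read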
row,Compound,IC50
1,COc1ccc(C(=O)Nc2cc(C(F)(F)F)ccc2N2CCOCC2)c(OC)c1,5 µM
2,CCC(CC)C(=O)Nc1cccc(C(=O)Nc2nnc(C3CCCCC3)s2)c1,> 50 µM (inactive)
3,N#CN1CC[C@@H](NC(=O)Nc2ccccc2Oc2ccccc2)C1,3.2 µM
4,COc1cc(Cl)c(C)cc1NC(=O)c1ccc([N+](=O)[O-])s1,7.9 µM
5,CC(Cn1ccnc1)NC(=O)C1CC1c1cccc(Cl)c1Cl (stereo unspecified),16 µM
6,COc1ccc(Cl)cc1CC(=O)Nc1n[nH]c(-c2ccccn2)n1,4 µM
7,O=C(Nc1ccccc1C(=O)Nc1ccccn1)c1ccco1,> 50 µM (inactive)
8,CN(C)c1ccc(-c2cc3nccnc3c(OC[C@H]3CCCNC3)n2)cn1,> 50 µM (inactive)
9,c1ccc(CNc2cccc3ccncc23)cc1,10 µM
10,CN(C)c1ccc(N)cc1CN(CC1CCCO1)S(C)(=O)=O (stereo unspecified),4 µM
11,Cc1ccc2c(c1)-c1onc(C(=O)N3CCCCC3c3cccnc3)c1CO2 (stereo unspecified),32 µM
12,Cc1cc(Oc2cc(Cl)c(Cl)cc2Cl)n2ncnc2n1,16 µM
13,CCOc1ccc(CN(C)Cc2nc(N)nc(Nc3ccc(C)cc3)n2)cc1,32 µM
14,Cc1nn(C2CCS(=O)(=O)C2)c(C)c1CN(C)C(=O)C=Cc1sc2ccccc2c1Cl (stereo unspecified),13 µM
15,COc1ccc(-c2cnc(NC(=O)c3ccc(F)cc3)n2C)cc1,3.2 µM
16,CCC(=O)N1N=C(c2ccc3c(c2)CCCC3)Sc2c1ncn2C(=O)CC,25 µM
17,COc1cccc(-c2c(C)nn(-c3nc(N)nc(-c4ccccn4)n3)c2N)c1,5 µM
18,O=C(Nc1ccc(C(F)(F)F)cc1)NC1(C(=O)NCc2ccco2)CCCCC1,40 µM
19,N#Cc1cnc(Nc2cccc(CCN3CCOCC3)c2)nc1Nc1ccccc1C(N)=O,2.5 µM
20,Cc1cc2nc(CN(C)Cc3ncccc3C)[nH]c2cc1C,5 µM
21,CC(C)C[C@H](NC(=O)c1csc(-c2cccs2)n1)C(=O)NC1(C#N)CC1,5 µM
22,CC(Cn1ccnc1)NC(=O)C=Cc1ccc(Cl)cc1 (stereo unspecified),> 50 µM (inactive)
23,CCCCN(C(=O)c1ccc(NC(=O)C(C)C)cc1)c1ccccc1,1 µM
24,Clc1ccc(CN2CCN(C3=NCCN3)CC2)cc1Cl,> 50 µM (inactive)
25,CC(C)(C)Nc1nc(Nc2ccc3c(c2)CS(=O)(=O)C3)nc2[nH]ccc12,7.9 µM
26,CCc1cccc(CC)c1-n1c(SCC(=O)N2CC(=O)Nc3ccccc32)nnc1-c1cccnc1,40 µM

row,Compound,IC50
1,O=C(Cn1cnc2cc([N+](=O)[O-])ccc2c1=O)NCCc1ccc(Cl)cc1Cl,> 50 µM (inactive)
2,CCCCNc1nccc(-c2c(-c3ccc(F)cc3)nn3c(N4CCOCC4)cccc23)n1,> 50 µM (inactive)
3,Nc1ncnc2c1ncn2[C@@H]1O[C@H](CO)C[C@H]1O,> 50 µM (inactive)
4,N#Cc1cc(N2CCCC2=O)ccc1Sc1ccccc1CO,> 50 µM (inactive)
5,Cc1ccc(Nc2nc(C3CCCN3Cc3ccn[nH]3)cs2)nc1 (stereo unspecified),13 µM
6,Cn1nccc1-c1cc(OC(CN)c2ccccc2)cnc1-c1ccco1 (stereo unspecified),> 50 µM (inactive)
7,N#Cc1cccc(CN2CCC(c3nc(-c4ccc(C(F)(F)F)nc4)no3)CC2)c1,13 µM
8,O=C(CN(Cc1ccccn1)Cc1ccccn1)NCc1csc(-c2cccs2)n1,13 µM
9,O=C(Cc1ccc2c(c1)CCC2)Nc1n[nH]c(-c2ccccn2)n1,7.9 µM
10,O=C(CC1(O)C(=O)N(Cc2cccs2)c2ccc(Br)cc21)c1cccnc1 (stereo unspecified),> 50 µM (inactive)
11,O=C(Nc1nc2ccccc2[nH]1)c1ccc2nc[nH]c2c1,2.5 µM
12,Cc1nn(-c2nc(N)nc(-c3ccccn3)n2)c(N)c1-c1ccccc1,5 µM
13,COc1ccc(NS(=O)(=O)c2cc(-c3cc(C)[nH]n3)ccc2C)cc1OC,1 µM
14,Cn1ccnc1-c1nc(NCc2ccccc2Cl)cc(C2CC2)n1,1.6 µM
15,Cc1nc(C(=O)Nc2ccc3c(c2)OCO3)nn1-c1ccc(Cl)cc1,2.5 µM
16,COc1ccc(-c2ccc3nnc(-c4ccc(O)c(OC)c4)n3c2)cn1,4 µM
17,Cc1nn(-c2nc3ccccc3s2)c2c1C(c1ccc(OCC(N)=O)cc1)SCC(=O)N2 (stereo unspecified),> 50 µM (inactive)
18,CN(C)CCN(C)Cc1ccc(Cl)cc1NS(=O)(=O)c1ccc(Cl)c(Cl)c1,5 µM
19,O=C(CN(Cc1ccccn1)Cc1ccccn1)NCc1ccc(-c2csnn2)cc1,7.9 µM
20,Cc1nn(-c2nc3ccccc3[nH]2)c2c1C(c1ccc(O)cc1)CC(=O)N2 (stereo unspecified),0.79 µM
21,NC(=O)c1cc(F)ccc1Nc1nc(NC2CCC(O)CC2)ncc1Cl (stereo unspecified),3.2 µM
22,Cc1nc2c(-c3n[nH]c(-c4ccccc4N)n3)cccn2c1C,6.3 µM
23,O=C(Nc1n[nH]c(-c2ccccn2)n1)C1CC1c1ccccc1 (stereo unspecified),13 µM
24,CCc1cccc(CC)c1-n1c(SCC(=O)NC(=O)NCc2ccco2)nnc1-c1cccnc1,> 50 µM (inactive)
25,O=C(CN1CCN(S(=O)(=O)c2cccc([N+](=O)[O-])c2)CC1)Nc1ccc(Oc2ccccc2)cc1,4 µM
26,CCCN(Cc1ccc(OC)c(OC)c1)Cc1cc(=O)c2c(C)cc(C)cc2[nH]1,20 µM

row,Compound,IC50
1,Cc1ccc(NC(=O)c2ccc(Cl)c(NC(=O)c3ccc([N+](=O)[O-])cc3)c2)cc1,> 50 µM (inactive)
2,Cc1nc(-c2ccc3c(c2)OCO3)sc1C(=O)NCc1ccc2c(c1)OCO2,2 µM
3,CC1=C(C(=O)Nc2ccc(Cl)cc2)C(c2ccncc2)n2ncc(C(=O)Nc3ccccc3)c2N1 (stereo unspecified),0.13 µM
4,Cn1cc(CN2CCN(c3ccc4c(c3)CCN(C(=O)[C@H]3C[C@@H]3c3ccccc3)CC4)CC2)cn1,0.63 µM
5,O=[N+]([O-])c1cccc(Nc2cncc(-c3ccccc3CO)c2)c1,40 µM
6,CS(=O)(=O)NC1CCC(Oc2cc3cnccc3cc2-c2ccsc2)CC1 (stereo unspecified),32 µM
7,COc1ccc2nc(N(Cc3cccnc3)C(=O)C3CCC3)sc2c1,13 µM
8,COc1ccc(C(=O)Nc2c(C)nn(COc3cccc(C(F)(F)F)c3)c2C)cc1,> 50 µM (inactive)
9,Cc1ccccc1CNC(=O)CN(Cc1ccccn1)Cc1ccccn1,10 µM
10,O=C1COC(c2ccccc2)(c2ccccc2)CN1C1CCN(Cc2ccc(-n3ccnc3)cc2)CC1,32 µM
11,O=C(Cn1cnc([N+](=O)[O-])n1)Nc1ccc(Cl)cc1C(=O)c1ccccc1,> 50 µM (inactive)
12,CCOc1ccc(CC(=O)N2c3ccccc3CC2C(=O)NC)cc1 (stereo unspecified),> 50 µM (inactive)
13,Cc1nc2nc(C)c(Cc3ccc(C(C)C)cc3)c(=O)n2[nH]1,1.3 µM
14,CCCCn1c(=O)c2c(N)onc2n(CCCC)c1=O,> 50 µM (inactive)
15,COc1ccc(-c2nc3ccncc3c(=O)n2CCOc2ccccc2)cc1,40 µM
16,NC(=O)c1ccccc1Nc1nc(NC2CCCCC2)nc2[nH]ccc12,20 µM
17,Cc1cnc(Nc2cc(Cc3ccccc3)nc(NC3CCC(O)CC3)n2)s1 (stereo unspecified),0.79 µM
18,O=c1[nH]ccc2ccc(-c3ccncc3)cc12,> 50 µM (inactive)
19,Cc1ncsc1CNc1cnc(-c2ccc3c(c2)OCCO3)c(-c2cnn(C)c2)c1,25 µM
20,O=C(c1ccccc1)N1CCC(C(=O)N2CCC(Oc3ccccc3Cl)CC2)CC1,> 50 µM (inactive)
21,Cc1cc(NC(=O)c2ccc([N+](=O)[O-])s2)ccc1Br,3.2 µM
22,COc1cccc(C(=O)[C@H]2C[C@@H]2CN(Cc2cccnc2)Cc2cccnc2)c1,0.16 µM
23,COc1cccc(CCNC(=O)C(c2cn[nH]c2)N2CCN(c3ccc(Cl)cc3)CC2)c1 (stereo unspecified),13 µM
24,C=CC[C@@H]1CC=C[C@@H](C)N1C(=O)CCc1nnc(-c2ccc3c(c2)OCO3)o1,6.3 µM
